This passage reports IC50, SR and Hit results from article PMC4434572, “Identification of novel drugs to target dormant micrometastases” (BMC Cancer, 2015).

The subject of this test is cancer cells on SISgel or plastic. Kind of test: Activity of leads and analogs on cancer cells grown on plastic vs SISgel (cell line not stated). It is filed as cell-based. The following applies: for SR: ratio IC50-p/IC50-S; for Hit: YES/NO. The procedure:
The NCI library is no longer available in the form used here, but how it was constructed is described (http://dtp.nci.nih.gov/branches/dscb/diversity_explanation.html). The ChemBridge library is a subset (Set Code NM1024) of the full 50,000 compound library (http://www.chembridge.com/screening_libraries/diversity_libraries/). Compounds were diluted to 100 μM before use. SISgel was prepared as described previously from powdered porcine small intestine submucosa obtained from Cook Biotech (W. Lafayette, IN). It is a natural product that is used extensively in tissue engineering as a bioscaffold. J82 bladder cancer cells and other cell lines were obtained from the ATCC (Bethesda, MD). […] Efficacy in vitro was assessed by plating 30,000 cells in 50 μL of high glucose DMEM with penicillin-streptomycin and 10 % fetal calf serum on SISgel in a 96-well plate containing 50 μL of gelled SISgel per well. Cells were allowed to attach and assume the SISgel phenotype for 48 h. A matching plate without SISgel was prepared 24 h later by pipetting 3,000 cells in 100 μL of high glucose DMEM with penicillin-streptomycin and 10 % fetal calf serum into each well of 96 well plate. The cells were allowed to attach and grow for 24 h. […] The cells were exposed to drug in fresh medium for 48 h, at which time the cell number was determined using the CFDA-AM cellular esterase proliferation assay (cat. #C1354, Life Technologies). For screening the results are reported as the ratio of cell count of cells on the plastic surface to the cell count on SISgel. An initial difference of 1.5 fold identified potential hits. All potential hits were confirmed in triplicate. […] Data were analyzed using nonlinear regression to a sigmoid curve with Prism 4 (GraphPad Software, Inc., LaJolla, CA). […]

Where [1] appears, read: cells on SISgel, read-out: IC50-S.
Where [2] appears, read: cells on plastic, read-out: IC50-p.

Where two headings read alike, the source gives them in different places.

As for `O=S(=O)(O)c1ccc2c(N=Nc3c(O)c(S(=O)(=O)O)cc4cc(S(=O)(=O)O)ccc34)c(O)c(S(=O)(=O)O)cc2c1` [2-2-dihydroxy-1-1-azo-naphthalene-3-3-6], the SR was determined as 1.9. Moreover, the IC50 under setting [1] was found to be 111 µM. Further, the IC50 under setting [2] is 213 µM.
For `Cn1c(=O)c2[nH]c(-c3ccc(S(=O)(=O)O)cc3)nc2n(C)c1=O.O` [8-(p-Sulfophenyl)theophylline hydrate], the SR turned out to be 2.5. Also, the IC50 (read-out: IC50-S) is 140 µM. The IC50 (read-out: IC50-p) is 346 µM.
With `CCN(CC)c1ccc(C(=C2C=CC(=[N+](CC)CC)C=C2)c2ccc(S(=O)(=O)[O-])cc2S(=O)(=O)[O-])cc1.[Na+]` [Acid Blue 1], the SR is 1.6. In addition, the IC50 under setting [1] was determined as 194 µM. For the same molecule, under setting [2], the IC50 was 318 µM.
`Nc1c(N=Nc2cccc([N+](=O)[O-])c2)c(S(=O)(=O)[O-])cc2cc(S(=O)(=O)[O-])c(N=Nc3ccccc3)c(O)c12.[Na+].[Na+]` [Acid Blue 29]: the SR is reported as 1.7. For the same molecule, under setting [1], the IC50 was determined as 122 µM. In addition, the IC50 under setting [2] is 212 µM.
On the same counts, the results for `O=S(=O)(O)c1ccc2c(O)c(N=Nc3cccc4ccccc34)c(S(=O)(=O)O)cc2c1.[Na+]` [Acid Dye (Azo Red)] are 1, 21 µM and 23 µM.
Consider `CCN(Cc1cccc(S(=O)(=O)[O-])c1)c1ccc(C(=C2C=CC(=[N+](CC)Cc3cccc(S(=O)(=O)[O-])c3)C=C2)c2ccccc2)cc1.[Na+]` [Acid Green 3], for which the SR was 0.74. Besides, the IC50 under setting [1] came out at 666 µM. For the same molecule, under setting [2], the IC50 stood at 492 µM.
For `O=S(=O)([O-])c1ccc(N=Nc2c(O)ccc3ccccc23)cc1.[Na+]` [Acid Orange 7], the SR turned out to be 0.29. Besides, the IC50 under setting [1] turned out to be 400 µM. Also, the IC50 under setting [2] turned out to be 114 µM.
As for `CC(=O)Nc1cc(S(=O)(=O)[O-])cc2cc(S(=O)(=O)[O-])c(N=Nc3ccccc3)c(O)c12.[Na+].[Na+]` [Acid Red 1], the Hit entry is recorded as “YES” and the SR is listed as 2.6. Moreover, the IC50 under setting [1] came to 13 µM. Besides, the IC50 under setting [2] stood at 33 µM.
Consider `Cc1ccc(N=Nc2c(O)c(S(=O)(=O)[O-])cc3cc(S(=O)(=O)[O-])ccc23)c(C)c1.[Na+].[Na+]` [Acid Red 26], for which the SR is reported as 0.26. For the same molecule, the IC50 under setting [1] stood at 604 µM. In addition, the IC50 under setting [2] stood at 154 µM.
In the case of `CC(=O)Nc1ccc(N=Nc2c(N)ccc3cc(S(=O)(=O)O)cc(O)c23)c(S(=O)(=O)O)c1.N.N` [Acid Red 37], the Hit entry is on record as “YES” and the SR worked out at 1.7. Further, under setting [1], the IC50 turned out to be 51 µM. For the same molecule, the IC50 under setting [2] is 85 µM.
On to `O=[N+]([O-])c1ccc(N=Nc2c(S(=O)(=O)[O-])cc3cc(S(=O)(=O)[O-])cc(O)c3c2O)cc1.[Na+].[Na+]` [Acid Red 60 Chromotrope 2B], for which the SR is given as 1.2. Besides, the IC50 under setting [1] was 22 µM. For the same molecule, the IC50 under setting [2] came to 26 µM.
As for `CCN(Cc1cccc(S(=O)(=O)[O-])c1)c1ccc(C(=C2C=CC(=[N+](C)C)C=C2)c2ccc(N(CC)Cc3cccc(S(=O)(=O)O)c3)cc2)cc1.[Na]` [Acid Violet 49], the SR is on record as 0.75. Also, the IC50 under setting [1] was 86 µM. Also, the IC50 under setting [2] amounted to 64 µM.
Turning to `CCN(Cc1cccc(S(=O)(=O)[O-])c1)c1ccc(C(=C2C=CC(=[N+](CC)Cc3cccc(S(=O)(=O)[O-])c3)C=C2)c2ccccc2Cl)cc1.[Na+]` [Alizarin Green], the SR turned out to be 0.67. For the same molecule, under setting [1], the IC50 came to 621 µM. For the same molecule, the IC50 under setting [2] is 414 µM.
`O=S(=O)([O-])c1ccc2c(N=Nc3ccc(S(=O)(=O)[O-])c4ccccc34)c(O)c(S(=O)(=O)[O-])cc2c1.[Na+].[Na+].[Na+]` [Amaranthe]: the SR amounted to 1.3. Also, under setting [1], the IC50 was found to be 26 µM. In addition, the IC50 under setting [2] stood at 33 µM.
In the case of `O=S(=O)(O)c1cc2cc(S(=O)(=O)O)c(N=Nc3ccccc3[As](=O)(O)O)c(O)c2c(O)c1N=Nc1ccccc1[As](=O)(O)O` [Arsenazo III], the SR was 1.4. The IC50 under setting [1] turned out to be 34 µM. Further, under setting [2], the IC50 was determined as 47 µM.
`O=S(=O)([O-])c1cc(O)c2c(N=Nc3c(S(=O)(=O)[O-])cc4cc(S(=O)(=O)[O-])cc(O)c4c3O)cc(S(=O)(=O)[O-])cc2c1.[Na+].[Na+].[Na+].[Na+]` [Beryllon II]: the Hit entry is recorded as “YES” and the SR worked out at 3. Also, the IC50 under setting [1] came to 33 µM. Also, the IC50 under setting [2] was determined as 94 µM.
With `O=S(=O)([O-])c1cc(S(=O)(=O)[O-])c2c(N=Nc3ccc(N=Nc4ccccc4)cc3)c(O)ccc2c1.[Na+].[Na+]` [Brilliant Crocein Moo], the Hit result is “YES” and the SR is recorded as 1.8. The IC50 under setting [1] was determined as 47 µM. Besides, under setting [2], the IC50 stood at 82 µM.
On to `O=S(=O)(O)c1cc(O)c2c(N=Nc3c(S(=O)(=O)O)cc4cc(S(=O)(=O)O)cc(N=Nc5c(S(=O)(=O)O)cc6cc(S(=O)(=O)O)cc(O)c6c5O)c4c3O)cc(S(=O)(=O)O)cc2c1` [Calichrome], for which the SR is 1.2. Further, the IC50 under setting [1] came out at 375 µM. Also, the IC50 under setting [2] came to 464 µM.
Regarding `O=[N+]([O-])c1ccc(N=Nc2c(S(=O)(=O)[O-])cc3cc(S(=O)(=O)[O-])cc(O)c3c2O)cc1.[Na+].[Na+]` [Chromotrope 2B], the Hit entry is given as “YES” and the SR is 1.8. Under setting [1], the IC50 was 40 µM. Moreover, the IC50 under setting [2] came to 71 µM.
`O=S(=O)([O-])c1cc(O)c2c(O)c(N=Nc3ccccc3)c(S(=O)(=O)[O-])cc2c1.[Na+].[Na+]` [Chromotrope 2R]: the SR is listed as 0.98. Under setting [1], the IC50 is 94 µM. The IC50 under setting [2] was 92 µM.
On to `CC(=O)Nc1ccc(N=Nc2c(S(=O)(=O)[O-])cc3cc(S(=O)(=O)[O-])cc(O)c3c2O)cc1.[Na+].[Na+]` [Chromotrope 6B], for which the Hit result is on record as “YES” and the SR amounted to 2.1. Moreover, the IC50 under setting [1] was 34 µM. Besides, the IC50 under setting [2] amounted to 71 µM.
In the same order, the values of `O=S(=O)(O)c1ccc(N=Nc2ccc3c(S(=O)(=O)O)cccc3c2O)c2ccccc12.[Na+]` [Chromotrope F4B] are “YES”, 1.8, 50 µM and 90 µM.
Turning to `CCOc1ccc(Nc2ccc(C(=C3C=CC(=[N+](CC)Cc4cccc(S(=O)(=O)[O-])c4)C=C3C)c3ccc(N(CC)Cc4cccc(S(=O)(=O)[O-])c4)cc3C)cc2)cc1.[Na+]` [Comassie Brilliant Blue], the SR was determined as 1.6. Further, under setting [1], the IC50 came to 125 µM. Also, under setting [2], the IC50 was found to be 201 µM.
As to `O=S(=O)([O-])c1cc2cc(S(=O)(=O)O)ccc2c(N=Nc2c(O)cc(S(=O)(=O)[O-])c3ccccc23)c1O.[Na+].[Na+]` [Hydroxy Naphthol Blue], the Hit entry is reported as “YES” and the SR was 2.0. Besides, the IC50 under setting [1] worked out at 72 µM. Also, the IC50 under setting [2] was determined as 146 µM.
For `O=S(=O)([O-])c1ccc2c(N=Nc3c(O)cc(S(=O)(=O)[O-])c4ccccc34)c(O)c(S(=O)(=O)[O-])cc2c1.[Na+].[Na+].[Na+]` [HydroxyNapthol Blue], the Hit result is reported as “YES” and the SR stood at 2.1. The IC50 under setting [1] is 64 µM. Besides, the IC50 under setting [2] was found to be 135 µM.

As a reminder, the IC50 is the concentration that inhibits the measured activity by half.
